In patent US9795619B2, “Pharmaceutical compositions” (priority 2012, dated 2017):

Key:
[1] = system: HIV; details: cited from earlier work
[2] = system: HIV; test: human protein adjusted IC90 (reference line in FIG. 1 and FIG. 2); format: cell-based
[3] = LAP Dog PK study, SQ and IM injections (IV values given for reference); parameters: species or system Beagle dogs; details: in vivo
[4] = LAP Rat PK study, SQ and IM injections (IV values given for reference); details: in vivo, Sprague-Dawley rats; for Cmax / Tmax / half-life: n=3
Procedure: Injections were made in Sprague-Dawley rats SQ and IM at 5 and 20 mg/kg doses with T1/2, Cmax, Tmax, and AUC being measured.

[5] = LAP Dog PK study, SQ and IM injections (IV values given for reference); details: in vivo, dose 5 mg/kg, Beagle dogs
Procedure: Injections were also made in Beagle dogs SQ and IM at 5 and 20 mg/kg doses with T1/2, Cmax, Tmax, and AUC measured.

[6] = LAP Rat PK study, SQ and IM injections (IV values given for reference); parameters: species or system Sprague-Dawley rats; details: Sprague-Dawley, in vivo, rat (FIG. 1)
[7] = dog, sc, SQ, dose 2.5 mg/kg, Beagle dogs, n=3
[8] = dog, IM, dose 2.5 mg/kg, Beagle dogs, n=3

Q: With `C=C(C)[C@@H]1CC[C@]2(C(=O)O)CC[C@]3(C)[C@H](CC[C@@H]4[C@@]5(C)CC[C@H](OC(=O)CC(C)(C)C(=O)O)C(C)(C)[C@@H]5CC[C@]43C)[C@@H]12` [Bevirimat] as the compound, how does the “reduced HIV viral load by a mean of” value ([1]; patients with trough levels >=20 μg/mL and without key baseline Gag polymorphisms at Q369, V370 or T371) read?
A: 1.3 log10/mL

Q: What about the “HIV viral load reduction versus patients without Gag polymorphisms” value ([1]; users with Gag polymorphisms at Q369, V370 or T371) of the same compound?
A: significantly lower load reductions

Q: Which “human protein adjusted IC90” value [2] does the source give for `CC(C)C1=C2[C@H]3CC[C@@H]4[C@@]5(C)CC[C@H](OC(=O)CC(C)(C)C(=O)O)C(C)(C)[C@@H]5CC[C@@]4(C)[C@]3(C)CC[C@@]2([C@@H](O)CN(CCN(C)C)Cc2ccc(Cl)cc2)CC1=O` [compound of Formula I, 4-(((3aR,5aR,5bR,7aR,9S,11aR,11bR,13aS)-3a-((R)-2-((4-Chlorobenzyl)(2-(dimethylamino)ethyl)amino)-1-hydroxyethyl)-1-isopropyl-5a,5b,8,8,11a-pentamethyl-2-oxo-3,3a,4,5,5a,5b,6,7,7a,8,9,10,11,11a,11b,12,13,13a-octadecahydro-2H-cyclopenta[a]chrysen-9-yl)oxy)-2,2-dimethyl-4-oxobutanoic acid] here?
A: 4.31 ng/mL

Q: What about the AUC(0-t) ([3]; Beagle, IV, dog (FIG. 2), read-out: AUC0-24 IV) of the same compound?
A: 4150 ng·h/mL

Q: And the half-life ([3]; Beagle, IV, dog (FIG. 2), read-out: T1/2 IV (converted))?
A: 6.9 h

Q: What about the Cmax [3, 7] of the same compound?
A: 38 ± 11 ng/mL

Q: And the Tmax [3, 7]?
A: 144 h

Q: What about the half-life ([3]; dog, sc, SQ, dose 2.5 mg/kg, Beagle dogs, n=3, read-out: T1/2 (converted)) of the same compound?
A: 96 h

Q: And the AUC(0-t) ([3]; dog, sc, SQ, dose 2.5 mg/kg, Beagle dogs, t = 22 days, read-out: AUC0-t)?
A: 7900 ng·h/mL

Q: What about the Cmax [3, 8] of the same compound?
A: 59.3 ± 23.2 ng/mL

Q: What about the Tmax [3, 8] of the same compound?
A: 80 ± 13.9 h

Q: And the half-life ([3]; dog, IM, dose 2.5 mg/kg, Beagle dogs, n=3, read-out: T1/2 (converted))?
A: 72 h

Q: What about the AUC(0-t) ([3]; dog, IM, dose 2.5 mg/kg, Beagle dogs, t = 17 days, read-out: AUC0-t) of the same compound?
A: 8600 ng·h/mL

Q: What about the Tmax ([3]; dog, IM, dose 5 mg/kg, Beagle dogs, n=3) of the same compound?
A: 128 ± 27.7 h

Q: And the Cmax ([4]; IM, dose 5 mg/kg)?
A: 100 ± 7.8 ng/mL

Q: What about the Tmax ([4]; IM, dose 5 mg/kg) of the same compound?
A: 5.3 ± 2.3 h

Q: What about the half-life ([4]; IM, dose 5 mg/kg) of the same compound?
A: 149 h

Q: And the AUC(0-t) ([4]; IM, dose 5 mg/kg, t printed as '= days' (no number))?
A: 7700 ng·h/mL

Q: What about the Cmax ([4]; IM, dose 20 mg/kg) of the same compound?
A: 178 ± 56.9 ng/mL

Q: And the Tmax ([4]; IM, dose 20 mg/kg)?
A: 8 ± 4 h

Q: And the half-life ([4]; IM, dose 20 mg/kg)?
A: 298 h

Q: And the AUC(0-t) ([4]; IM, dose 20 mg/kg, t = 42 days)?
A: 24900 ng·h/mL

Q: What about the Cmax ([4]; sc, SQ, dose 5 mg/kg) of the same compound?
A: 170 ± 9.2 ng/mL

Q: And the Tmax ([4]; sc, SQ, dose 5 mg/kg)?
A: 6.7 ± 2.3 h

Q: And the half-life ([4]; sc, SQ, dose 5 mg/kg)?
A: 120 h

Q: And the AUC(0-t) ([4]; sc, SQ, dose 5 mg/kg, t = 24 days)?
A: 8000 ng·h/mL

Q: What about the Cmax ([4]; sc, SQ, dose 20 mg/kg) of the same compound?
A: 285 ± 48.4 ng/mL

Q: And the Tmax ([4]; sc, SQ, dose 20 mg/kg)?
A: 6.7 ± 2.3 h

Q: And the half-life ([4]; sc, SQ, dose 20 mg/kg)?
A: 463 h

Q: And the AUC(0-t) ([4]; sc, SQ, dose 20 mg/kg, t = 57 days)?
A: 23900 ng·h/mL

Q: And the Cmax ([5]; IM, n=3)?
A: 69.7 ± 7.2 ng/mL

Q: And the half-life ([5]; IM, n=3)?
A: 118 h

Q: And the AUC(0-t) ([5]; IM, t = 36 days)?
A: 16200 ng·h/mL

Q: And the Cmax ([5]; sc, SQ, n=3)?
A: 59 ± 14.5 ng/mL

Q: And the Tmax ([5]; sc, SQ, n=3)?
A: 208 ± 55.4 h

Q: What about the half-life ([5]; sc, SQ, n=3) of the same compound?
A: 127 h

Q: And the AUC(0-t) ([5]; sc, SQ, t = 40 days)?
A: 17400 ng·h/mL

Q: What about the AUC(0-t) ([6]; read-out: AUC0-24 IV) of the same compound?
A: 2960 ng·h/mL

Q: What about the half-life ([6]; read-out: T1/2 IV (converted)) of the same compound?
A: 3.4 h
